Holding throughout (format): cell-based, Zoysia japonica Steud.
Experiment [1] deals with mature seeds of zoysiagrass. Kind of experiment: Callus induction from mature seeds on MS media with growth hormone combinations. The following applies: 2,4-dichlorophenoxyacetic acid 0 mg/L, MS, 3 months. As for the experimental part:
Seeds of zoysiagrass (Zoysia japonica Steud.), from which seed coats were first removed, were sterilized by soaking in 70% ethyl alcohol for 1 min and subsequently in 5% sodium hypochlorite solution supplemented with 0.001% (v/v) Tween 20 for 15 min. The sterilized seeds were then thoroughly rinsed with sterilized distilled water 3-4 times. They were then germinated and grown for 2 weeks on the N6 media (pH 5.8) containing 1 mg/L 2,4-dichlorophenoxyacetic acid, 3% sucrose, and 0.2% gelite and subject to callus induction. The callus induction and growth was carried out in a controlled environment culture room set at 26° C. and 70% humidity in the dark.
To examine the effects of plant growth hormones on the callus induction efficiency and the callus morphology, sterilized seeds were placed and cultured on the MS plates supplemented with 4 mg/L thiamine-HCl and 100 mg/L α-ketoglutaric acid. The MS plates, each with a diameter of 9 cm, were further supplemented with various amounts of 2,4-dichlorophenoxyacetic acid (0, 1, 2, 4, 8 mg/L) and 6-benzylaminopurine (0, 0.02, 0.2, 2, 4 mg/L). One hundred seeds were grown per each MS plate, and 3 plates were used for each treatment group. After three months, the number of seeds from which calli had been induced was counted. For the morphological classification of calli, calli were induced and grown on the MS media supplemented with 6-benzylaminopurine and 2,4-dichlorophenoxyacetic acid under the identical condition as described above for three months. They could be morphologically classified into four distinct groups (I-IV), based on the callus morphology, color, and rigidity.
To investigate the effects of plant growth hormones on the callus induction, the mature seed-derived callus induction rates were measured on the MS media supplemented with different amounts of 2,4-dichlorophenoxyacetic acid and 6-benzylaminopurine after grown for three months.
Seeds were plated and grown on the MS media containing 4 mg/L thiamine-HCl, 100 mg/L α-ketoglutaric acid, and different concentration combinations of 2,4-dichlorophenoxyacetic acid and 6-benzylaminopurine for 3 months.

The test system of experiment [2] is Type I calli derived from mature seeds of zoysiagrass. Kind of experiment: Effects of cytokinins on shoot induction from callus. Particulars: Type I calli, MS with 30 g/L maltose, 2 weeks. The method, then: The media were additionally supplemented with 1 or 4 mg/L of kinetin, 6-benzylaminopurine, or TDZ. Each treatment consisted of 3 MS plates, each with 16 calli.

Experiment [3] shares this test system. The description is as above. Particulars: 44 Type I calli tested, MS with 30 g/L maltose, 2 weeks.

Structures are written as SMILES.

Take `c1ccc(CNc2ncnc3nc[nH]c23)cc1` [6-benzylaminopurine]: the “Callus producing seeds (%)” value in experiment [1] (6-benzylaminopurine 0.02 mg/L), in experiment [1] (6-benzylaminopurine 0.2 mg/L), in experiment [1] (6-benzylaminopurine 2 mg/L) and in experiment [1] (6-benzylaminopurine 4 mg/L) was 0 (0) % throughout. For the same molecule, the “Number of callus producing seeds” value in experiment [1] (6-benzylaminopurine 0.02 mg/L), in experiment [1] (6-benzylaminopurine 0.2 mg/L), in experiment [1] (6-benzylaminopurine 2 mg/L) and in experiment [1] (6-benzylaminopurine 4 mg/L) was 0 (0) in each case. Moreover, the “Number of shoots over 5 mm” value stood at 19 in experiment [2] (growth regulator 1 mg/L) and 1 in experiment [2] (growth regulator 4 mg/L). The figures for the “Number of shoots per callus lump” value in experiment [2] (growth regulator 1 mg/L) and in experiment [2] (growth regulator 4 mg/L) were 5.2 and 3.7, respectively. In addition, the results for the “Number of calli with shoots” value in experiment [3] (growth regulator 1 mg/L) and in experiment [3] (growth regulator 4 mg/L) were 17 and 9, respectively.

The values are drawn from patent US6489166B1, “Plant regeneration method for mature seed-derived callus in zoysiagrass” (Korea Kumho Petrochemical Co., Ltd., priority 2001, dated 2002).
